Data from ChEMBL document CHEMBL1201862, “PubChem BioAssay data set” (2004).
The source made the active and inactive calls.

Experiments:
[1] = HepG2 cell cytotoxicity, dose response, cytotoxicity control for non-replicating M. tuberculosis project (AID 489018); assay type: functional; details: Mycobacterium tuberculosis
Streptococcus = test: GAS UMAA2166 growth inhibition – luminescence, BacTiterGlo, counter-screen for streptokinase expression inhibitor project, dose response (AID 1915); assay type: functional, organism-based;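 further: potency for reduction of bacterial viability or growth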
[2] = biological target: T1, Microphthalmia-associated transcription factor (Homo sapiens, UniProt O75030); test: reducers of TRPM1 reporter luminescence, concentration series – cell-based, SK-MEL-5, cherry-picked, set 3, MITF inhibitor project, dose response (AID 493073); assay type: functional;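 further: SK-MEL-5 melanoma cells with luciferase driven by the MITF target TRPM1 promoter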
T1 sequence (O75030 whole entry): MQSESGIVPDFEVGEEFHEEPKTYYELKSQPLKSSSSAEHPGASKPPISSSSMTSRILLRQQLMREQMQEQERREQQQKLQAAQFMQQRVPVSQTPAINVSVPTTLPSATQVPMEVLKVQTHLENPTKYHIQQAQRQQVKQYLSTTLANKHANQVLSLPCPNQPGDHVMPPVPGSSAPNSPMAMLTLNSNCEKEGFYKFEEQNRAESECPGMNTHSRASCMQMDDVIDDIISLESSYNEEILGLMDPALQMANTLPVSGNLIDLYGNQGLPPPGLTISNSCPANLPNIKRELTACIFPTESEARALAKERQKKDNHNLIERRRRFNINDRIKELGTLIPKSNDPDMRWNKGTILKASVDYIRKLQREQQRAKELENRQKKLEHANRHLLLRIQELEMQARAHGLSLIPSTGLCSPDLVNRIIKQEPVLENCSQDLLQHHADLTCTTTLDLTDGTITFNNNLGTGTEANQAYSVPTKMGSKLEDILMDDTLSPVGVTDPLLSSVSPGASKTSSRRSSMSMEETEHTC

[3] = THP-1 cell cytotoxicity, dose response, cytotoxicity control for non-replicating M. tuberculosis project (AID 489025); assay type: functional
Protein Wnt-3a = Protein Wnt-3a (Mus musculus, UniProt P27467); test: antagonism of Wnt3a pathway luciferase reporter – Wnt-LIGHT cells, luminescence, selectivity assay for Gli-SUFU antagonist project, dose response (AID 651570); assay type: functional; details: read-out: IC50_Mean;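 further: Wnt-LIGHT reporter cells stimulated with conditioned medium from Wnt3a-producing cells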
[4] = Vero E6 cell cytotoxicity, dose response, cytotoxicity control for non-replicating M. tuberculosis project, secondary assay (AID 492998); assay type: functional, VeroE6; details: Vero C1008
cells = assay type: functional
[5] = system: Streptococcus sp. 'group A'; test: Streptococcus pyogenes SK(-)GAS viability under kanamycin – luminescence, BacTiterGlo, confirmation, counter-screen for streptokinase expression inhibitor project, dose response (AID 1900); assay type: functional, organism-based
[6] = NIH/3T3 cell viability loss – mouse embryonic fibroblasts, dry powder, set 2, cytotoxicity control, dose response (AID 493247); assay type: functional, cell-based; details: Fibroblast
Trypanosoma cruzi = test: anti-trypanosomal activity in host cells – cell-based, plate reader, dry powder, set 3, dose response (AID 493197); assay type: functional
Troponin, cardiac muscle = Troponin, cardiac muscle (Homo sapiens, UniProt P19429+P45379+P63316); test: Fluorescence-based biochemical high throughput dose response assay for activators of the calcium sensitivity of cardiac Regulated Thin Filaments (RTF). [Related pubchem assays (depositor defined):AID493008, AID493018, AID504382, AID504383]; assay type: protein-complex assay
[7] = Trypanosoma cruzi growth suppression in host cells – NIH3T3 host cells, beta-gal luminescence, confirmation (AID 2044); assay type: functional, cell-based;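 further: intracellular parasites grown in NIH/3T3 mouse fibroblasts as host cells; luminescent beta-galactosidase reporter signal from transgenic T. cruzi replicating inside host cells; inhibitors lower the luminescence signal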
HEK293 [8] = test: cells; assay type: functional, cell-based; details: Homo sapiens
HEK293 [9] = test: inhibition of NOD1-driven NF-kB reporter – cell-based, luminescence, uHTS, primary screen (AID 1578); assay type: functional; details: Homo sapiens
[10] = NIH3T3 cell viability loss – ATP luminescence, mouse fibroblasts, counter-screen, dose response (AID 2010); assay type: functional, cell-based;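 further: cells exposed to compound for about 90 hours before reading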
HEK293 [11] = test: cells; assay type: functional, cell-based; details: Homo sapiens; remark: listed apart in the source
HEK293 [12] = test: NOD2 signaling inhibitors in MDP-stimulated cells, cell-based, uHTS, luminescence (AID 2001); assay type: functional; details: Homo sapiens
HEK293 [13] = test: cells; assay type: functional, cell-based; details: Homo sapiens; remark: listed apart in the source
[14] = biological target: Nucleotide-binding oligomerization domain-containing protein 2 (Homo sapiens, UniProt Q9HC29); test: inhibition of NOD2-driven NF-kB reporter – cell-based, luminescence, uHTS, HEK293 (AID 1566); assay type: functional
[15] = biological target: G-protein coupled receptor 55 (Homo sapiens, UniProt Q9Y2T6); test: inhibition of LPI-stimulated GPR55 beta-arrestin translocation – imaging, U2OS, beta-arrestin-GFP, LPI agonist, primary screen (AID 2013); assay type: functional;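 further: antagonist potency measured as reduced agonist-driven arrestin aggregation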
[16] = biological target: E3 ubiquitin-protein ligase Mdm2/Protein Mdm4 (Homo sapiens, UniProt O15151+Q00987); test: disruption of Mdm2/MdmX protein binding – luminescence detection, dose response (AID 504593); assay type: functional
[17] = biological target: T2, Ubiquitin-conjugating enzyme E2 N (Homo sapiens, UniProt P61088); assay type: functional;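 further: Dose-response confirmation in a TR-FRET assay detecting UBC13-driven polyubiquitin chain formation, inhibition measured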
T2 sequence (P61088 whole entry): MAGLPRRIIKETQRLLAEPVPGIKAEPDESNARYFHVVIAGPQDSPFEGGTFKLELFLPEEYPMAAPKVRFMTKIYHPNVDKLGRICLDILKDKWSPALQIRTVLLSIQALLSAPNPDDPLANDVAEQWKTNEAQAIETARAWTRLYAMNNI

SMILES: CCCCCCn1c(=O)c(C(=O)Nc2cnccn2)c(O)c2ccccc21
- CC50 [1]: 10.2 µM (active)
- EC50 (Streptococcus): 13 µM (active)
- AC50 [2]: 3.68 µM (active)
- CC50 [3]: 3.51 µM (active)
- IC50 (Protein Wnt-3a): 3.55 µM (active)
- CC50 [4]: 7.38 µM (active)
- IC50 (cells): 5.03 µM (active)
- EC50 [5]: 3 µM (active)

SMILES: COc1ccc(CN2CCCC(C(=O)N3CCc4ccccc4C3)C2)cc1OC (centres undefined)
- AC50 [6]: 41.7 µM (active)
- AC50 (Trypanosoma cruzi): 3.54 µM (active)

SMILES: Oc1[nH]nc(C(F)(F)F)c1/C=N/c1cccc(Cl)c1
- EC50 (Troponin, cardiac muscle): > 71.5 µM (inactive)

SMILES: C=CCn1c(O)c(N=NC(=S)Nc2cccc(OC)c2)c2ccccc21
- EC50 [7]: 0.589 µM (active)
- IC50 (HEK293 [8]): > 20 µM (inactive)
- EC50 (HEK293 [9]): > 20 µM (inactive)
- EC50 [10]: 4.49 µM (active)
- IC50 (HEK293 [11]): > 20 µM (inactive)
- IC50 (HEK293 [12]): 1.76 µM (active)
- IC50 (HEK293 [13]): 3.41 µM (active)
- EC50 [14]: > 20 µM (inactive)

SMILES: Cc1ccccc1CSCCNC(=O)c1ccc(N(C)S(=O)(=O)c2ccccc2)cc1
- IC50 [15]: 3 µM (active)

SMILES: COc1ccc(-c2cc3c(=O)n(CC(=O)NCCCN4CCC(N5CCCCC5)CC4)nc(C)n3n2)cc1
- IC50 [16]: 9.38 µM (active)
- EC50 [7]: 3.09 µM (active)
- EC50 [10]: > 60 µM (not active)
- IC50 [17]: > 20 µM (inactive)
